For 18 compounds, CC50, EC50 and EC90 results are on record in patent US10752584B2 (EMORY UNIVERSITY, priority 2016, dated 2020).

The term pEC50 denotes the EC50 on a negative log10 scale, so that one unit is a factor of ten. Broadly, the EC90 is the concentration at which the effect reaches the 90% level.

Type in all cases: cell-based
Data set [1] can be described thus: Cellular toxicity assay in HepG2 cells. As to conditions: human, read-out: Cytotoxicity. The method, then:
(§1) The toxicity of the compounds was assessed in Vero, human PBM, CEM (human lymphoblastoid), MT-2, and HepG2 cells, as described previously (see Schinazi R. F., Sommadossi J.-P., Saalmann V., Cannon D. L., Xie M.-Y., Hart G. C., Smith G. A. & Hahn E. F. Antimicrob. Agents Chemother. 1990, 34, 1061-67). Cycloheximide was included as positive cytotoxic control, and untreated cells exposed to solvent were included as negative controls. The cytotoxicity IC50 was obtained from the concentration-response curve using the median effective method described previously (see Chou T.-C. & Talalay P. Adv. Enzyme Regul. 1984, 22, 27-55; Belen'kii M. S. & Schinazi R. F. Antiviral Res. 1994, 25, 1-11).

The nature of data set [2]: Cellular toxicity assay in human PBM cells. As to conditions: human, human PBM cells, read-out: Cytotoxicity. Here is the method:
as §1

Data set [3] concerns wild type HBV. Description: Anti-HBV assay in AD-38 cell line. Conditions: Hepatitis B virus, AD-38 cells, HBV in culture supernatant; for pEC50: read-out: Anti-HBV activity EC50; for EC90: read-out: Anti-HBV activity EC90. The method, then:
The anti-HBV activity of the compounds was determined by treating the AD-38 cell line carrying wild type HBV under the control of tetracycline (see Ladner S. K., Otto M. J., Barker C. S., Zaifert K., Wang G. H., Guo J. T., Seeger C. & King R. W. Antimicrob. Agents Chemother. 1997, 41, 1715-20). Removal of tetracycline from the medium [Tet (−)] results in the production of HBV. The levels of HBV in the culture supernatant fluids from cells treated with the compounds were compared with that of the untreated controls. Control cultures with tetracycline [Tet (+)] were also maintained to determine the basal levels of HBV expression. 3TC was included as positive control.
The median effective concentrations (EC50) ranges of several of the compounds described herein against HBV are shown in Table 3: […]

Data set [4] can be described thus: Cellular toxicity assay in Vero cells. As to conditions: African green monkey, read-out: Cytotoxicity. Here is the method:
as §1

Data set [5] in a line: Cellular toxicity assay in CEM cells. Conditions: human, CEM lymphoblastoid cells, read-out: Cytotoxicity. Here is the method: as §1

Each structure is given as a SMILES string. pEC50: −log10 of the molar value. A value given as a limit tells only on which side of the number the result lay.

Turning to `Cc1c(C(=O)C(=O)NCc2c[nH]nn2)c(C)n(C)c1C(=O)Nc1ccc(F)c(F)c1` [Compound 38, 4-(2-(((1H-1,2,3-triazol-4-yl)methyl)amino)-2-oxoacetyl)-N-(3,4-difluorophenyl)-1,3,5-trimethyl-1H-pyrrole-2-carboxamide], the CC50 is 85 µM in data set [1], > 100 µM in data set [2], 45 µM in data set [4] and 29 µM in data set [5]. In data set [3], the pEC50 is 8.05 to 9.00. The EC90 in data set [3] was in the range of 100 to 900 nM.
`C#CCNC(=O)C(=O)c1c(C)c(C(=O)Nc2cccc(OC(F)(F)F)c2)n(C)c1C` [Compound 55, 1,3,5-trimethyl-4-(2-oxo-2-(prop-2-yn-1-ylamino)acetyl)-N-(3-(trifluoromethoxy)phenyl)-1H-pyrrole-2-carboxamide]: the CC50 is 88 µM in data set [1], > 100 µM in data set [2], 15 µM in data set [4] and 38 µM in data set [5]. Further, the pEC50 in data set [3] was 6.05 to 7.00. In addition, the EC90 in data set [3] fell in the range of 1000 to 9000 nM.
In the case of `C#CCNC(=O)C(=O)c1c(C)c(C(=O)NC(C)(C)c2ccc(F)c(F)c2)n(C)c1C` [Compound 56, N-(2-(3,4-difluorophenyl)propan-2-yl)-1,3,5-trimethyl-4-(2-oxo-2-(prop-2-yn-1-ylamino)acetyl)-1H-pyrrole-2-carboxamide], the CC50 in data set [1], in data set [2], in data set [4] and in data set [5] was > 100 µM throughout. Besides, the negative logarithm of the EC50 (pEC50) in data set [3] is 5.05 to 6.00.
Turning to `C#CCNC(=O)C(=O)c1c(C)c(C(=O)Nc2ccc(S(F)(F)(F)(F)F)cc2)n(C)c1C` [Compound 59, 1,3,5-trimethyl-4-(2-oxo-2-(prop-2-yn-1-ylamino)acetyl)-N-(4-(pentafluorosulfanyl)phenyl)-1H-pyrrole-2-carboxamide], the CC50 came to 43 µM in data set [1], 44 µM in data set [2], 12 µM in data set [4] and 3 µM in data set [5]. The negative logarithm of the EC50 (pEC50) in data set [3] was 5.05 to 6.00.
On to `Cc1c(C(=O)C(=O)NCC#N)c(C)n(C)c1C(=O)Nc1ccc(F)c(F)c1` [Compound 81, 4-(2-((cyanomethyl)amino)-2-oxoacetyl)-N-(3,4-difluorophenyl)-1,3,5-trimethyl-1H-pyrrole-2-carboxamide], for which the CC50 in data set [1] was 71 µM; in data set [2], 30 µM; in data set [4] it was > 100 µM; in data set [5] it was 33 µM. The pEC50 in data set [3] was 8.05 to 9.00. The EC90 in data set [3] fell in the range of 100 to 900 nM.
For the compound `C#CCNC(=O)C(=O)c1c(C)c(C(=O)NC2(c3ccc(F)c(F)c3)CC2)n(C)c1C` [Compound 57, N-(1-(3,4-difluorophenyl)cyclopropyl)-1,3,5-trimethyl-4-(2-oxo-2-(prop-2-yn-1-ylamino)acetyl)-1H-pyrrole-2-carboxamide], the CC50 in data set [1], in data set [2], in data set [4] and in data set [5] was > 100 µM each time. Besides, the negative logarithm of the EC50 (pEC50) in data set [3] is 5.05 to 6.00.
In the case of `C#CCNC(=O)C(=O)c1c(C)c(C(=O)Nc2ccccc2)n(C)c1C` [Compound 58, 1,3,5-trimethyl-4-(2-oxo-2-(prop-2-yn-1-ylamino)acetyl)-N-phenyl-1H-pyrrole-2-carboxamide], the CC50 in data set [1], in data set [2], in data set [4] and in data set [5] was > 100 µM throughout. The pEC50 in data set [3] was 7.05 to 8.00. Further, the EC90 in data set [3] was in the range of 100 to 900 nM.
Consider `C#CCNC(=O)C(=O)c1c(C)c(C(=O)Nc2ccc(F)c(C#N)c2)n(C)c1C` [Compound 7b, N-(3-cyano-4-fluorophenyl)-1,3,5-trimethyl-4-(2-oxo-2-(prop-2-yn-1-ylamino)acetyl)-1H-pyrrole-2-carboxamide], for which the CC50 in data set [1], in data set [2], in data set [4] and in data set [5] was > 100 µM each time. Also, the negative logarithm of the EC50 (pEC50) in data set [3] was 7.05 to 8.00. Besides, in data set [3], the EC90 was in the range of 100 to 900 nM.
For the compound `Cc1c(C(=O)C(=O)NCc2nccn2C)c(C)n(C)c1C(=O)Nc1ccc(F)c(F)c1` [Compound 48, N-(3,4-difluorophenyl)-1,3,5-trimethyl-4-(2-(((1-methyl-1H-imidazol-2-yl)methyl)amino)-2-oxoacetyl)-1H-pyrrole-2-carboxamide], the CC50 in data set [1] was 84 µM; in data set [2] it was > 100 µM; in data set [4], > 100 µM; in data set [5], 27 µM. In addition, in data set [3], the negative-log EC50 (pEC50) was 8.05 to 9.00. The EC90 in data set [3] lay within 10 to 90 nM.
`Cn1cc(NS(=O)(=O)c2ccccc2)cc1C(=O)Nc1ccc(F)c(F)c1` [Compound 36, N-(3,4-difluorophenyl)-1-methyl-4-(phenylsulfonamido)-1H-pyrrole-2-carboxamide]: the CC50 stood at 43.5 µM in data set [1], 13.9 µM in data set [2], 22.9 µM in data set [4] and 36.7 µM in data set [5]. In addition, in data set [3], the negative logarithm of the EC50 (pEC50) is 6.05 to 7.00. In addition, the EC90 in data set [3] was in the range of 1000 to 9000 nM.
As to `Cc1c(C(=O)C(=O)NCC#Cc2nccn2C)c(C)n(C)c1C(=O)Nc1ccc(F)c(F)c1` [Compound 83, N-(3,4-difluorophenyl)-1,3,5-trimethyl-4-(2-((3-(1-methyl-1H-imidazol-2-yl)prop-2-yn-1-yl)amino)-2-oxoacetyl)-1H-pyrrole-2-carboxamide], the CC50 in data set [1] came to 42 µM; in data set [2], 7 µM; in data set [4] it was 7 µM; in data set [5], 4 µM. The pEC50 in data set [3] is 5.05 to 6.00.
Consider `Cc1c(C(=O)C(=O)Nc2ccccn2)c(C)n(C)c1C(=O)Nc1ccc(F)c(F)c1` [Compound 43, N-(3,4-difluorophenyl)-1,3,5-trimethyl-4-(2-oxo-2-(pyridin-2-ylamino)acetyl)-1H-pyrrole-2-carboxamide], for which the CC50 in data set [1] was > 100 µM; in data set [2], > 100 µM; in data set [4], > 100 µM; in data set [5], 50 µM. For the same compound, the negative-log EC50 (pEC50) in data set [3] is 7.05 to 8.00. Also, the concentration for an effect of 90% (EC90) in data set [3] lay in the range of 100 to 900 nM.
Regarding `C#CCNC(=O)C(=O)c1c(C)c(C(=O)Nc2cccc(S(F)(F)(F)(F)F)c2)n(C)c1C` [Compound 60, 1,3,5-trimethyl-4-(2-oxo-2-(prop-2-yn-1-ylamino)acetyl)-N-(3-(pentafluorosulfanyl)phenyl)-1H-pyrrole-2-carboxamide], the CC50 is > 100 µM in data set [1], 86 µM in data set [2], 82 µM in data set [4] and 23 µM in data set [5]. Moreover, the pEC50 in data set [3] is 6.05 to 7.00. Further, the EC90 in data set [3] was 100 to 900 nM.
Regarding `Cc1c(C(=O)C(=O)NCc2nn[nH]n2)c(C)n(C)c1C(=O)Nc1ccc(F)c(F)c1` [Compound 82, 4-(2-(((2H-tetrazol-5-yl)methyl)amino)-2-oxoacetyl)-N-(3,4-difluorophenyl)-1,3,5-trimethyl-1H-pyrrole-2-carboxamide], the CC50 in data set [1], in data set [2], in data set [4] and in data set [5] was > 100 µM throughout. Also, the pEC50 in data set [3] was 5.05 to 6.00.
Regarding `C#CCNC(=O)C(=O)c1c(C)c(C(=O)Nc2cncnc2)n(C)c1C` [Compound 62, 1,3,5-trimethyl-4-(2-oxo-2-(prop-2-yn-1-ylamino)acetyl)-N-(pyrimidin-5-yl)-1H-pyrrole-2-carboxamide], the CC50 in data set [1], in data set [2], in data set [4] and in data set [5] was > 100 µM in each case. Further, the pEC50 in data set [3] was 5.05 to 6.00. In data set [3], the EC90 was in the range of 1000 to 9000 nM.
`Cc1c(C(=O)C(=O)N2CCOCC2)c(C)n(C)c1C(=O)Nc1ccc(F)c(F)c1` [Compound 72, N-(3,4-difluorophenyl)-1,3,5-trimethyl-4-(2-morpholino-2-oxoacetyl)-1H-pyrrole-2-carboxamide]: the CC50 in data set [1] turned out to be 100 µM; in data set [2], 30 µM; in data set [4], 51 µM; in data set [5], 14 µM. Also, the pEC50 in data set [3] is 6.05 to 7.00. Further, the EC90 in data set [3] was 100 to 900 nM.
Consider `Cc1c(C(=O)C(=O)Nc2nc3ccccc3[nH]2)c(C)n(C)c1C(=O)Nc1ccc(F)c(F)c1` [Compound 46, 4-(2-((1H-benzo[d]imidazol-2-yl)amino)-2-oxoacetyl)-N-(3,4-difluorophenyl)-1,3,5-trimethyl-1H-pyrrole-2-carboxamide], for which the CC50 in data set [1] is 7 µM; in data set [2], > 100 µM; in data set [4] it was 10 µM; in data set [5], 38 µM. The negative-log EC50 (pEC50) in data set [3] is 6.05 to 7.00. In data set [3], the EC90 fell in the range of 1000 to 9000 nM.
As for `C=CCNC(=O)C(=O)c1c(C)c(C(=O)Nc2ccc(F)c(F)c2)n(C)c1C` [Compound 75, 4-(2-(allylamino)-2-oxoacetyl)-N-(3,4-difluorophenyl)-1,3,5-trimethyl-1H-pyrrole-2-carboxamide], the CC50 is > 100 µM in data set [1], > 100 µM in data set [2], 33 µM in data set [4] and 66 µM in data set [5]. In addition, in data set [3], the pEC50 was 8.05 to 9.00. Further, the EC90 in data set [3] was in the range of 10 to 90 nM.
